Test results: PubChem BioAssay (NCI)
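GI50 = concentration required for 50% inhibition of growth. Definition used: TGI = concentration required for complete inhibition of growth.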

Legend:
Test in all cases: NCI-60 cell line screen, 384-well format
DU-145 prostate = system: DU-145 prostate
MDA-MB-231 breast = system: MDA-MB-231 breast
NCI-H522 lung = system: NCI-H522 lung
SN12C renal = system: SN12C renal
NCI-H322M lung = system: NCI-H322M lung
NCI-H226 lung = system: NCI-H226 lung
HCC-2998 colon = system: HCC-2998 colon
IGROV1 ovarian = system: IGROV1 ovarian
UO-31 renal = system: UO-31 renal
MDA-MB-468 breast = system: MDA-MB-468 breast
OVCAR-5 ovarian = system: OVCAR-5 ovarian
SF-539 CNS = system: SF-539 CNS
RXF 393 renal = system: RXF 393 renal
HT29 colon = system: HT29 colon
MALME-3M melanoma = system: MALME-3M melanoma
HOP-62 NSCLC = system: HOP-62 NSCLC
BT-549 breast = system: BT-549 breast
LOX IMVI melanoma = system: LOX IMVI melanoma
PC-3 prostate = system: PC-3 prostate
SK-MEL-2 melanoma = system: SK-MEL-2 melanoma
TK-10 renal = system: TK-10 renal
MDA-MB-435 melanoma = system: MDA-MB-435 melanoma
NCI/ADR-RES ovarian = system: NCI/ADR-RES ovarian
K-562 leukemia = system: K-562 leukemia
SK-MEL-5 melanoma = system: SK-MEL-5 melanoma
A498 renal = system: A498 renal
SF-268 CNS = system: SF-268 CNS
CAKI-1 renal = system: CAKI-1 renal
ACHN renal = system: ACHN renal
HL-60(TB) leukemia = system: HL-60(TB) leukemia
SW-620 colon = system: SW-620 colon
T-47D breast = system: T-47D breast
SK-MEL-28 melanoma = system: SK-MEL-28 melanoma
U251 glioblastoma = system: U251 glioblastoma
SNB-19 CNS = system: SNB-19 CNS
UACC-257 melanoma = system: UACC-257 melanoma
KM12 colon = system: KM12 colon
OVCAR-8 ovarian = system: OVCAR-8 ovarian
786-0 renal = system: 786-0 renal
NCI-H460 NSCLC = system: NCI-H460 NSCLC
SF-295 CNS = system: SF-295 CNS
A549 NSCLC = system: A549 NSCLC
MOLT-4 leukemia = system: MOLT-4 leukemia
MCF7 breast = system: MCF7 breast
HCT-116 colon = system: HCT-116 colon
SR leukemia = system: SR leukemia
HOP-92 NSCLC = system: HOP-92 NSCLC
RPMI-8226 leukemia = system: RPMI-8226 leukemia
CCRF-CEM leukemia = system: CCRF-CEM leukemia
OVCAR-4 ovarian = system: OVCAR-4 ovarian
SK-OV-3 ovarian = system: SK-OV-3 ovarian
COLO 205 colon = system: COLO 205 colon
HCT-15 colon = system: HCT-15 colon
NCI-H23 lung = system: NCI-H23 lung
OVCAR-3 ovarian = system: OVCAR-3 ovarian
M14 melanoma = system: M14 melanoma
UACC-62 melanoma = system: UACC-62 melanoma

`Cc1c(S(C)(=O)=O)c(-c2cc(F)cc(N3CCN(c4ccc(NS(=O)(=O)c5ccc(N[C@H](CCN6CCC(C(=O)OCCCP(=O)(O)O)CC6)CSc6ccccc6)c(S(=O)(=O)C(F)(F)F)c5)cc4)CC3)c2)c(-c2ccc(Cl)cc2)n1C(C)C` was tested, and the GI50 (DU-145 prostate) was > 100 µM, the TGI (DU-145 prostate) was > 100 µM and the GI50 (MDA-MB-231 breast) was 0.945 µM. For the same compound, the TGI (MDA-MB-231 breast) was 15 µM, the GI50 (NCI-H522 lung) was > 100 µM and the TGI (NCI-H522 lung) was > 100 µM. For the same compound, the GI50 (SN12C renal) was > 100 µM, the TGI (SN12C renal) was > 100 µM and the GI50 (NCI-H322M lung) was > 100 µM. The TGI (NCI-H322M lung) was > 100 µM, the GI50 (NCI-H226 lung) was > 100 µM and the TGI (NCI-H226 lung) was > 100 µM. The GI50 (HCC-2998 colon) was 0.425 µM, the TGI (HCC-2998 colon) was 15.6 µM and the GI50 (IGROV1 ovarian) was > 100 µM. The TGI (IGROV1 ovarian) was > 100 µM, the GI50 (UO-31 renal) was > 100 µM and the TGI (UO-31 renal) was > 100 µM. For the same compound, the GI50 (MDA-MB-468 breast) was 73.1 µM, the TGI (MDA-MB-468 breast) was > 100 µM and the GI50 (OVCAR-5 ovarian) was > 100 µM. The TGI (OVCAR-5 ovarian) was > 100 µM, the GI50 (SF-539 CNS) was > 100 µM and the TGI (SF-539 CNS) was > 100 µM. The GI50 (RXF 393 renal) was 0.12 µM, the TGI (RXF 393 renal) was 30.3 µM and the GI50 (HT29 colon) was > 100 µM. The TGI (HT29 colon) was > 100 µM, the GI50 (MALME-3M melanoma) was > 100 µM and the TGI (MALME-3M melanoma) was > 100 µM. The GI50 (HOP-62 NSCLC) was > 100 µM, the TGI (HOP-62 NSCLC) was > 100 µM and the GI50 (BT-549 breast) was > 100 µM. For the same compound, the TGI (BT-549 breast) was > 100 µM, the GI50 (LOX IMVI melanoma) was > 100 µM and the TGI (LOX IMVI melanoma) was > 100 µM. For the same compound, the GI50 (PC-3 prostate) was > 100 µM, the TGI (PC-3 prostate) was > 100 µM and the GI50 (SK-MEL-2 melanoma) was > 100 µM. For the same compound, the TGI (SK-MEL-2 melanoma) was > 100 µM, the GI50 (TK-10 renal) was > 100 µM and the TGI (TK-10 renal) was > 100 µM. The GI50 (MDA-MB-435 melanoma) was > 100 µM, the TGI (MDA-MB-435 melanoma) was > 100 µM and the GI50 (NCI/ADR-RES ovarian) was > 100 µM. The TGI (NCI/ADR-RES ovarian) was > 100 µM, the GI50 (K-562 leukemia) was > 100 µM and the TGI (K-562 leukemia) was > 100 µM. For the same compound, the GI50 (SK-MEL-5 melanoma) was > 100 µM, the TGI (SK-MEL-5 melanoma) was > 100 µM and the GI50 (A498 renal) was > 100 µM. For the same compound, the TGI (A498 renal) was > 100 µM, the GI50 (SF-268 CNS) was > 100 µM and the TGI (SF-268 CNS) was > 100 µM. The GI50 (CAKI-1 renal) was > 100 µM, the TGI (CAKI-1 renal) was > 100 µM and the GI50 (ACHN renal) was > 100 µM. The TGI (ACHN renal) was > 100 µM, the GI50 (HL-60(TB) leukemia) was > 100 µM and the TGI (HL-60(TB) leukemia) was > 100 µM. For the same compound, the GI50 (SW-620 colon) was > 100 µM, the TGI (SW-620 colon) was > 100 µM and the GI50 (T-47D breast) was > 100 µM. The TGI (T-47D breast) was > 100 µM, the GI50 (SK-MEL-28 melanoma) was > 100 µM and the TGI (SK-MEL-28 melanoma) was > 100 µM. For the same compound, the GI50 (U251 glioblastoma) was > 100 µM, the TGI (U251 glioblastoma) was > 100 µM and the GI50 (SNB-19 CNS) was > 100 µM. For the same compound, the TGI (SNB-19 CNS) was > 100 µM, the GI50 (UACC-257 melanoma) was > 100 µM and the TGI (UACC-257 melanoma) was > 100 µM. For the same compound, the GI50 (KM12 colon) was > 100 µM, the TGI (KM12 colon) was > 100 µM and the GI50 (OVCAR-8 ovarian) was > 100 µM. For the same compound, the TGI (OVCAR-8 ovarian) was > 100 µM, the GI50 ([…]-0 renal) was > 100 µM and the TGI (786-0 renal) was > 100 µM. For the same compound, the GI50 (NCI-H460 NSCLC) was > 100 µM, the TGI (NCI-H460 NSCLC) was > 100 µM and the GI50 (SF-295 CNS) was > 100 µM. For the same compound, the TGI (SF-295 CNS) was > 100 µM, the GI50 (A549 NSCLC) was > 100 µM and the TGI (A549 NSCLC) was > 100 µM. The GI50 (MOLT-4 leukemia) was 0.0152 µM, the TGI (MOLT-4 leukemia) was 0.0362 µM and the GI50 (MCF7 breast) was > 100 µM. For the same compound, the TGI (MCF7 breast) was > 100 µM, the GI50 (HCT-116 colon) was > 100 µM and the TGI (HCT-116 colon) was > 100 µM. The GI50 (SR leukemia) was 0.892 µM, the TGI (SR leukemia) was > 100 µM and the GI50 (HOP-92 NSCLC) was 0.0429 µM. The TGI (HOP-92 NSCLC) was 0.739 µM, the GI50 (RPMI-8226 leukemia) was 0.0131 µM and the TGI (RPMI-8226 leukemia) was 0.0361 µM. For the same compound, the GI50 (CCRF-CEM leukemia) was 0.0412 µM, the TGI (CCRF-CEM leukemia) was 0.178 µM and the GI50 (OVCAR-4 ovarian) was > 100 µM. The TGI (OVCAR-4 ovarian) was > 100 µM, the GI50 (SK-OV-3 ovarian) was > 100 µM and the TGI (SK-OV-3 ovarian) was > 100 µM. The GI50 (COLO 205 colon) was > 100 µM, the TGI (COLO 205 colon) was > 100 µM and the GI50 (HCT-15 colon) was > 100 µM. The TGI (HCT-15 colon) was > 100 µM, the GI50 (NCI-H23 lung) was > 100 µM and the TGI (NCI-H23 lung) was > 100 µM. The GI50 (OVCAR-3 ovarian) was > 100 µM, the TGI (OVCAR-3 ovarian) was > 100 µM and the GI50 (M14 melanoma) was > 100 µM. For the same compound, the TGI (M14 melanoma) was > 100 µM, the GI50 (UACC-62 melanoma) was > 100 µM and the TGI (UACC-62 melanoma) was > 100 µM.
